pEC50: −log10 of the molar value.
Legend:
[1] = tested on: LPS induced IL-23 (p19/p40) in DC cells differentiated from human PBMC; assay: IL23-p19 ELISA, dendritic cells (DC differentiated from human PBMC), IFNγ primed, LPS stimulated; assay type: cell-based; settings: human PBMC-derived dendritic cells, 1 μg/ml LPS, 18 hours, 10 pt
Procedure: Compound Screening Using DC Cells
1. Differentiation of PBMC's to DC Cells:
Human PBMC cells (400 million) obtained from the vendor were transferred into a T-175 flask containing 15 ml RPMI media (10% FBS) and incubate for 2 hours at 37° C. After 2 hours, the media including floating cells was aspirated out carefully and 12 ml of fresh RPMI media (10% FBS) containing GMCSF (100 ng/ml) and IL4 (20 ng/ml) was added, and the flask was kept in a 37° C. incubator for 7 days.
After 3 days, fresh GMCSF (100 ng/ml) and IL4 (20 ng/ml) were added to the flask and the incubation continued. After 7 days, the fully differentiated cells were harvested by spinning down (1200 rpm/5 min) and aspirating the media. The cells were suspended in fresh RPMI media (10% FBS) containing 50 ng/ml IFNγ (1000 U/ml) and then plated (50K/well in 100 μl) onto a white clear bottom 96 well plate and left in a 37° C. incubator for 24 hours.
2. Addition of Compounds:
After 24 hours incubation, 100 μl of RPMI media was added containing 2× concentrated test compound per well to the above cell-culture media (final concentration becomes 1×) and the plates were pre-incubated for 1 hour at 37° C. before stimulating with LPS.
After 1 hour compound pre-incubation, 10 μl per well of 20× concentrated LPS solution in RPMI media was added to give a final concentration of 1 μg/ml. The mixture was shaken and incubated the plates at 37° C. for an additional 18 hours.
155 μl of the supernatant was harvested from each well carefully (without the tip touching the bottom of the well) and to the remaining 50 μl/well of the cell culture plate was added 50 μl of Cell Titer Glo reagent. The mixture was incubated for 1-2 minutes on a shaker and the plate was read for luminescence intensity to determine the compound cytotoxicity. The cell culture supernatant collected above was used to carry out IL23 ELISA (65 μl-Supernatant) and IL10 ELISA (90 μl-Supernatant) as described below.
Human IL-23 (p19/p40) ELISA Protocol (e-Biosciences)
To 10.5 ml PBS add 50 μl of anti-IL23 (p19) was added capture antibody (2.5 μg/ml). The mixture was mixed well and 100 μl of the coating solution was added to each well of the 96 well white plates from Pierce. The wells were covered and incubated overnight at 4° C.
The anti-IL23 (p19)-antibody-coated plates were washed 2× using TBST (use plate washer) and blocked using 200 μl of 0.5% Casein for 1.5-2 hours at room temperature with shaking.
The plates were washed 2× using TBST and the supernatant was transferred (65 μl/well) to the above pre-blocked/IL23 (p19)-antibody-coated 96 well plate, and incubated at room temperature for 1.5 hours with shaking.
The plates were washed 4× using TBST (plate washer) and 100 μl/well detection antibody solution prepared from 2 μl of biotin labeled anti-IL-12 (p40/p70) antibody in 11 ml 1% BSA/PBS solution (1-5000 dilution) was added. The plates were incubated for 1 hour with shaking at room temperature.
Again, the plates were washed 4× with TBST and 100 μl of HRP labeled Streptavidin (R&D Systems) solution (10 μl/10 ml 1% BSA solution) was added, and the plates were incubated at room temperature for another 45 minutes with shaking.
After 45 minutes, the plates were washed with TBST 4× and 100 ul/well Super Signal ELISA Pico Chemiluminescent Substrate from Pierce (3.5 ml A+3.5 ml B+3.5 ml MQ water) was added. The plates were shaken for 1-2 minutes then read on a plate reader.

[2] = tested on: LPS induced IL23p19 in THP-1 cells; assay: LPS Induced IL23p19 in THP-1 Cells (with IFNγ Primed) Assay; assay type: cell-based; settings: Homo sapiens; THP-1 cells primed with IFNγ 50 ng/mL, 1 μg/mL LPS, 18 hours, 10 pt; read-out: IL23-p19 ELISA, THP1-IFNy, LPS, 10 pt EC50
Excerpt: LPS Induced IL23p19 in THP-1 Cells (with IFNγ Primed) Assay
THP-1 Cells (ATCC, Cat # TIB-202), Dimethyl Sulfoxide (DMSO) (Sigma-Aldrich, Cat # D2650), RPMI 1640 (Cellgro, Cat #10-040-CM), Fetal Bovine Serum (Sigma, Cat # F4135), Albumin From Bovine Serum (BSA) (Sigma-Aldrich, Cat # A7906), LPS (Serotype K-235, Sigma, Product Number L 2143), IFNγ (Peprotech, Cat #300-02), Capture antibody: Human IL-23p19 ELISA (e-Bioscience, Cat. #14-7238-85), Detection antibody: Primary Mouse Biotinylated anti-human IL-12 (p40/p70) (e-Bioscience, Cat. #13-7129-85), Secondary HRP-conjugated Streptavidin (R&D Systems, Cat # DY998), 1×PBST Washing Buffer (PBS-Tween tablet) (VWR International, Cat #80058-558), ELISA Blocking Buffer (PBS with 1% BSA), ELISA Dilution Buffer (PBS with 1% BSA), 384 Well Flat-Bottom, MaxiSorp Black Immuno Plates (Thermo Scientific, Cat #12-565-346), 384 Well Flat-Bottom, White Tissue Culture Plates (Thermo Scientific, Cat #12-565-343), Super Signal ELISA Pico Chemiluminescent Substrate (Thermo Scientific, Cat #37070), Cell Titer Glo reagent (Promega, Cat # G7573), Positive control, IKK2VI inhibitor (Calbiochem, Cat #401483), AquaMax 4000 plate washer (Molecular Devices), Luminometer, Wallac Victor2 1420 Multilabel Counter.
On day 1, 50K/well THP-1 cells were seeded and primed with IFNγ (50 ng/mL) in 384-well plates for about 18 hours in RPMI media with 10% FBS. On day 2, the compound was serially diluted in DMSO from 5 mM in 3-fold dilutions, and then diluted 1:125 in RPMI media with 10% FBS. 50 μL/well 2× compound was added to 50 μL/well THP-1 cells (with IFNγ primed) in duplicate in 384 well tissue culture plates. The cells were pre-incubated with compound for 1 hour at 37° C., 5% CO2 before addition of 10 μL/well 11×LPS to give a final concentration of 1 μg/mL LPS. Day 3, after stimulation for 18 hours at 37° C., 5% CO2, the assay plate was centrifuged and 70 μL/well supernatant was harvested. IL-23p19 protein in 70 μL/well of supernatant was measured by sandwich ELISA, and 25 μl/well Cell Titer Glo reagent was added to the remaining cells to measure compound toxicity.
Human IL-23p19 Sandwich ELISA:
Maxisorp immuno ELISA plates were pre-coated with 25 μL/well of anti-IL-23p19 capture antibody (2.5 ug/mL) in PBS overnight at room temperature. After washing with 1×PBST, the plates were blocked using 100 μL/well of 1% BSA in PBS for 2 hours at room temperature. The plates were washed three times with 1×PBST and 70 μL/well supernatant were added. The plates were incubated at room temperature for 2 hours with shaking and washed three times with 1×PBST. 25 μL/well of biotin labeled anti-IL-12 (p40/p70) detection antibody (100 ng/mL) in PBS with 1% BSA was added and the plates were incubated at room temperature for 2 hours with shaking. After washing three times with 1×PBST, 25 μL/well of streptavidin-HRP (1:200) in PBS with 1% BSA was added and the plates were incubated at room temperature for 20 minutes with shaking. The plates were washed three times with 1×PBST and 25 μL/well of Super Signal ELISA Pico Chemiluminescent Substrate were added. The plates were read with a luminometer, and the chemiluminescence values were entered into Athena (Rigel) for curve fitting, EC50 calculation, and database storage.

SMILES: CN1CCN(c2ccc(NC(=O)c3cccc(-c4cn[nH]c4)n3)c(N3CCCCC3)c2)CC1 [I-1, N-(4-(4-methylpiperazin-1-yl)-2-(piperidin-1-yl)phenyl)-6-(1H-pyrazol-4-yl)picolinamide]
- pEC50 [1]: 6.07
- pEC50 [2]: 6.51

SMILES: CN1CCN(c2ccc(NC(=O)c3ccc(-c4cn[nH]c4)o3)c(N3CCCCC3)c2)CC1 [I-2, N-(4-(4-methylpiperazin-1-yl)-2-(piperidin-1-yl)phenyl)-5-(1H-pyrazol-4-yl)furan-2-carboxamide]
- pEC50 [1]: 6.92
- pEC50 [2]: 7.43

SMILES: CN1CCN(c2ccc(NC(=O)c3csc(-c4cn[nH]c4)n3)c(N3CCCCC3)c2)CC1 [I-3, N-(4-(4-methylpiperazin-1-yl)-2-(piperidin-1-yl)phenyl)-2-(1H-pyrazol-4-yl)thiazole-4-carboxamide]
- pEC50 [1]: 7.15
- pEC50 [2]: 7.59

SMILES: O=C(Nc1ccc(N2CCOCC2)cc1N1CCC(F)CC1)c1cccc(-c2cn[nH]c2)n1 [I-4, N-(2-(4-fluoropiperidin-1-yl)-4-morpholinophenyl)-6-(1H-pyrazol-4-yl)picolinamide]
- pEC50 [1]: 5.44
- pEC50 [2]: 6.50

SMILES: O=C(Nc1ccc(N2CCOCC2)cc1N1CCC(F)CC1)c1ccc(-c2cn[nH]c2)o1 [I-5, N-(2-(4-fluoropiperidin-1-yl)-4-morpholinophenyl)-5-(1H-pyrazol-4-yl)furan-2-carboxamide]
- pEC50 [1]: 6.74
- pEC50 [2]: 6.84

SMILES: O=C(Nc1ccc(N2CCOCC2)cc1N1CCC(F)CC1)c1csc(-c2cn[nH]c2)n1 [I-6, N-(2-(4-fluoropiperidin-1-yl)-4-morpholinophenyl)-2-(1H-pyrazol-4-yl)thiazole-4-carboxamide]
- pEC50 [1]: 6.94
- pEC50 [2]: 7.12

SMILES: CN1CCN(c2ccc(NC(=O)c3cccc(-c4cn[nH]c4)n3)c(N3CCC(F)CC3)c2)CC1 [I-7, N-(2-(4-fluoropiperidin-1-yl)-4-(4-methylpiperazin-1-yl)phenyl)-6-(1H-pyrazol-4-yl)picolinamide]
- pEC50 [1]: 6.16
- pEC50 [2]: 6.06

SMILES: CN1CCN(c2ccc(NC(=O)c3ccc(-c4cn[nH]c4)o3)c(N3CCC(F)CC3)c2)CC1 [I-8, N-(2-(4-fluoropiperidin-1-yl)-4-(4-methylpiperazin-1-yl)phenyl)-5-(1H-pyrazol-4-yl)furan-2-carboxamide]
- pEC50 [1]: 6.74
- pEC50 [2]: 7.20

SMILES: CN1CCN(c2ccc(NC(=O)c3csc(-c4cn[nH]c4)n3)c(N3CCC(F)CC3)c2)CC1 [I-9, N-(2-(4-fluoropiperidin-1-yl)-4-(4-methylpiperazin-1-yl)phenyl)-2-(1H-pyrazol-4-yl)thiazole-4-carboxamide]
- pEC50 [1]: 7.17
- pEC50 [2]: 7.44

SMILES: O=C(Nc1ccc(N2CCOCC2)cc1N1CCC(O)CC1)c1cccc(-c2cn[nH]c2)n1 [I-10, N-(2-(4-hydroxypiperidin-1-yl)-4-morpholinophenyl)-6-(1H-pyrazol-4-yl)picolinamide]
- pEC50 [1]: 5.76
- pEC50 [2]: 6.52

SMILES: O=C(Nc1ccc(N2CCOCC2)cc1N1CCC(O)CC1)c1ccc(-c2cn[nH]c2)o1 [I-11, N-(2-(4-hydroxypiperidin-1-yl)-4-morpholinophenyl)-5-(1H-pyrazol-4-yl)furan-2-carboxamide]
- pEC50 [1]: 6.79
- pEC50 [2]: 6.87

SMILES: O=C(Nc1ccc(N2CCOCC2)cc1N1CCC(O)CC1)c1csc(-c2cn[nH]c2)n1 [I-12, N-(2-(4-hydroxypiperidin-1-yl)-4-morpholinophenyl)-2-(1H-pyrazol-4-yl)thiazole-4-carboxamide]
- pEC50 [1]: 7.22
- pEC50 [2]: 7.08

SMILES: O=C(Nc1ccc(N2CCOCC2)cc1N1CCOCC1)c1cccc(-c2cn[nH]c2)n1 [I-13, N-(2,4-dimorpholinophenyl)-6-(1H-pyrazol-4-yl)picolinamide]
- pEC50 [1]: 4.84
- pEC50 [2]: 5.76

SMILES: O=C(Nc1ccc(N2CCOCC2)cc1N1CCOCC1)c1ccc(-c2cn[nH]c2)o1 [I-14, N-(2,4-dimorpholinophenyl)-5-(1H-pyrazol-4-yl)furan-2-carboxamide]
- pEC50 [1]: 5.72
- pEC50 [2]: 6.75

SMILES: O=C(Nc1ccc(N2CCOCC2)cc1N1CCC(F)(F)CC1)c1cccc(-c2cn[nH]c2)n1 [I-19, N-(2-(4,4-difluoropiperidin-1-yl)-4-morpholinophenyl)-6-(1H-pyrazol-4-yl)picolinamide]
- pEC50 [2]: 5.60

SMILES: COc1ccc(N2CCOCC2)cc1NC(=O)c1ccc(-c2cn[nH]c2)o1 [I-40, N-(2-methoxy-5-morpholinophenyl)-5-(1H-pyrazol-4-yl)furan-2-carboxamide]
- pEC50 [2]: 5.47

SMILES: O=C(Nc1ccc(CCN2CCOCC2)cc1N1CCCCC1)c1ccc(-c2cn[nH]c2)o1 [I-55, N-(4-(2-morpholinoethyl)-2-(piperidin-1-yl)phenyl)-5-(1H-pyrazol-4-yl)furan-2-carboxamide]
- pEC50 [2]: 5.01

SMILES: O=C(Nc1cc(N2CCOCC2)ccc1N1CCCCC1)c1cccc(-c2cn[nH]c2)n1 [I-75, N-(5-morpholino-2-(piperidin-1-yl)phenyl)-6-(1H-pyrazol-4-yl)picolinamide]
- pEC50 [2]: 4.28
